Assay results published in patent US11648199B2 (AI Therapeutics, Inc, priority 2014, dated 2023).
Values joined by “and” are separate entries in the source; they are usually repeats but may differ in a detail not shown here. Identical values can stand only once. Like-named read-outs stand apart in the source and are kept apart here.

Columns and labels:
[1] = system: Phospho-S6 Ribosomal Protein (Ser240/244); assay: S6-P/total S6 western blot of rat lung homogenates after inhalation; assay type: in vivo, Sprague-Dawley rats; conditions: inhaled, target dose 0.354 mg/kg (FIG. 8B)
Method: Lungs samples from each animal were collected and snap frozen. The individual frozen lung samples were homogenized (Qiagen TissueLyser LT according to manufacturer's protocols) in 1×RIPA Buffer with protease and phosphatase inhibitors. […] The Western blot images were analyzed by NIH imageJ v1.48 to generate the respective antibody reactivity/intensity and create the ratio of S6 phosphorylation (S6-P) to total S6 intensities for each lung sample. The S6-P/total S6 ratios (y-axis) for sample organized by timepoint group (X-axis) were plotted on a one grouping variable scatter plot vertical graph (GraphPad, version 4.0), all samples in groups are represented by filled in black dots (●) on the graph and average is shown by the horizontal line between the dots within each respective group (FIG. 8B).

[2] = system: phosphorylated S6 protein (mTOR activity); assay: Phosphorylated S6 in mouse lung after OPA or oral rapamycin; assay type: in vivo, C57bl/6 mice
Text: To validate this approach, we used the presence of phosphorylated S6 protein in murine lung tissue as a biomarker for mTOR activity. In the mouse strain used (C57b1/6), the mouse airway and alveolar epithelial cells have constitutively active (phosphorylated, “p”) S6 protein. The S6 protein is typically phosphorylated by S6K which is downstream of mTORC1 and is activated, for example, downstream of growth factors such as epidermal growth factor (EGF), AKT, ERK, and RSK. mTORC1 promotes cell growth and proliferation by stimulating anabolic processes such as biosynthesis of lipids, proteins, and organelles, and suppressing catabolic processes such as autophagy.

[3] = 28-day repeat dose inhalation toxicokinetics, study 7300227; assay type: in vivo, Beagle dogs; conditions: for concentration at 24 h: Beagle, dog, lung, read-out: Lung 24 hr trough levels; for Blood trough levels / Max blood levels: average of D28
Text: For the dog study, a positive flow delivery system (PFDS) consisting of a central plenum and delivery arms was utilized. The central plenum was of modular design with separate ports into which were attached 5 delivery arms fitted with oronasal exposure masks fitted with inlet and outlet tubes. The mask was fitted over the dog's muzzle in such a way that the nose was inside the mask, allowing entrance and exit of air. During exposure, animals wore a harness and were placed on a restraint platform. The harness was attached to two side poles on the platform in order to restrict lateral movement of the dog. The front part of the harness was loosely attached to a hook on the front of the platform to prevent the animal from turning around. […] For each dosing group, one set of animals (N=6) was dosed for 60 minutes each day for 28 consecutive days.

in vivo = conditions: Sprague-Dawley, rat, inhaled
[4] = Lung concentration of rapamycin after inhalation, Study Day 1; assay type: in vivo, Sprague-Dawley rats
Text: The results of this initial study were replicated and expanded in additional rat studies and dog studies. […] Two sets of animals were used to perform the toxicokinetic measurements for this study.

[5] = Particle size distribution by laser diffraction after size reduction; assay type: physicochemical
Method: For jet milling, a lab scale MCOne unit from Jetpharma was used with the following operating conditions: venturi pressure 2-4 bar, milling pressure 3-5 bar, feed rate 90 g/h. For wet polishing, feed suspensions were prepared using purified water. A microfluidics high pressure homogenizer was used for the size reduction step and the resulting suspension was spray-dried. Details of the wet polishing process are set forth below.
The high pressure homogenizer used for the size reduction step of the wet polishing process was a pilot-scale Microfluidics High Pressure Homogenizer equipped with an auxiliary processing module (200 micron) and a 100 micron interaction chamber was used. The unit was operated at ˜455 bar (˜30 bar in the intensifier module hydraulic pressure). After microfluidization the fluid was removed by spray drying to generate a dry powder. A laboratory scale spray dryer, SD45 (BÜCHI, model B-290 Advanced) was equipped with a two fluid nozzle (cap and diameter were 1.4 and 0.7 mm, respectively). Two cyclones in series were used (being the first the standard Buchi cyclone and the second the high-performance Buchi cyclone) to collect the dried product. The spray drying unit was operated with nitrogen and in single pass mode, i.e. without recirculation of the drying nitrogen. The aspirator, blowing nitrogen, was set at 100% of its capacity (flow rate at maximum capacity is approximately 40 kg/h). The flow rate of the atomization nitrogen was adjusted to a value in the rotameter of 40±5 mm. Before feeding the product suspension, the spray dryer was stabilized with purified water, during which the flow rate was adjusted to 6 ml/min (20% in the peristaltic pump). The inlet temperature was adjusted to achieve the target outlet temperature (45° C.). After stabilization of the temperatures, the feed of the spray dryer was commuted from purified water to the product suspension (keeping the same flow rate used during stabilization) and the inlet temperature once again adjusted in order to achieve the target outlet temperature. At the end of the stock suspension, the feed was once more commuted to purified water in order to rinse the feed line and perform a controlled shut down. The dry product in the collection flasks under both cyclones was weighed and the yield calculated as the mass percentage of the dry product in relation to the total solids in the suspension fed to the high pressure homogenizer.
Particle size distribution was analyzed by laser diffraction. Solid state characterization (for polymorphic form and purity) was performed by high pressure liquid chromatography (HPLC), X-ray powder diffraction (XRPD), and differential scanning calorimetry (mDSC). Water content was determined by the Karl Fischer method.

[6] = IV 10 mg/kg, 24 hours after single dose; cited from earlier work
[7] = emitted dose 160 ug, repeat inhaled daily dose 40 ug
[8] = emitted dose 424 ug, repeat inhaled daily dose 106 ug

For `CO[C@H]1C[C@@H]2CC[C@@H](C)[C@@](O)(O2)C(=O)C(=O)N2CCCC[C@H]2C(=O)O[C@H]([C@H](C)C[C@@H]2CC[C@@H](O)[C@H](OC)C2)CC(=O)[C@H](C)/C=C(\C)[C@@H](O)[C@@H](OC)C(=O)[C@H](C)C[C@H](C)/C=C/C=C/C=C/1C` [Rapamycin, (3 S,6R,7E,9R,10R,12R,14S,15E,17E,19E,21S,23 S,26R,27R,34aS)-9,10,12,13,-14,21,22,23,24,25,26,27,32,33,34,34a-hexadecahydro-9,27-dihydroxy-3-[(1R)-2-[(1S,3R,4R)-4-hydroxy-3-methoxycyclohexyl]-1-methylethyl]-10,21-dimethox-y-6,8,12,14,20,26-hexamethyl-23,27-epoxy-3H-pyrido[2,1-c][1,4]oxaazacyclohentriacontine-1,5,11,28,29(4H,6H,31H)-pentone], the “S6 phosphorylation in lung tissue” value [1] was “Inhibits S6 Phosphorylation”, the “level of phosphorylated S6 (pS6) in lung” value ([2]; OPA 1 mg/kg, 1 hr (FIG. 8A)) was “reduced substantially” and the “level of phosphorylated S6 (pS6) in lung” value ([2]; OPA 1 mg/kg, 72 hr (FIG. 8A)) was “remained suppressed”. The “level of phosphorylated S6 (pS6) in lung” value ([2]; oral gavage 1 mg/kg, 1 hr (FIG. 8A)) was “reduced substantially”, the concentration at 24 h ([3]; inhaled, 106 ug) was 61 ng/g and the concentration at 24 h ([3]; emitted dose 160 ug, repeat inhaled daily dose 40 ug, after 28 days) was 32 ng/g. The “Blood trough levels” value [3, 7] was 1.9 ng/mL, the “Max blood levels” value [3, 7] was 7.4 ng/mL and the “Blood trough levels” value [3, 8] was 5.9 ng/mL. For the same molecule, the “Max blood levels” value [3, 8] was 27.3 ng/mL, the concentration at 12 h (in vivo; lung, 0.036 mg/kg/day) was 95 ng/g and the concentration at 12 h (in vivo; lung, 1 mg/kg/day) was ~14800 ng/g. It also gave a concentration at 12 h (in vivo; whole blood, 0.036 mg/kg/day) of 4 ng/mL, a concentration at 12 h (in vivo; whole blood, 1 mg/kg/day) of 645 ng/mL and a concentration at 2 h post-dosing ([4]; Sprague-Dawley, rat, lung, inhaled, target dose 11 ug Day 1, 2 hr post-dosing, read-out: Avg Lung rapa) of 250 ng/g. For the same molecule, the concentration at 4 h post-dosing ([4]; Sprague-Dawley, rat, lung, inhaled, target dose 11 ug Day 1, 4 hr post-dosing, read-out: Avg Lung rapa) was 192 ng/g, the concentration at 12 h post-dosing ([4]; Sprague-Dawley, rat, lung, inhaled, target dose 11 ug Day 1, 12 hr post-dosing, read-out: Avg Lung rapa) was 95 ng/g and the “Avg Lung rapa” value ([4]; target dose 11 ug Day 1, immediate post-dosing) was 560 ng/g. For the same molecule, the “Avg Lung rapa” value ([4]; target dose 11 ug Day 1, midway dosing) was 462 ng/g, the “PSD Dv10” value ([5]; jet milling) was 1.5 μm and 1.51 μm and the “PSD Dv50” value ([5]; jet milling) was 2.7 μm and 2.74 μm. The “PSD Dv90” value ([5]; jet milling) was 4.9 μm and 4.91 μm, the “PSD Dv10” value ([5]; wet polishing) was 1.51 μm and the “PSD Dv50” value ([5]; wet polishing) was 2.74 μm. For the same molecule, the “PSD Dv90” value ([5]; wet polishing) was 5.0 μm and 4.91 μm, the “Rapamycin in Blood” value [6] was 31 ng/mL and the “Rapamycin in Lung” value [6] was 721 ng/g.
